Laboratory results taken from patent US4789665A, “Anthracyclines and drugs containing them” (Laboratoires Hoechst S. A., priority 1985, dated 1988).
Converted amounts (≈) assume the structure as drawn.

Test system: leukemia L 1210 strain cells
Assay: cell proliferation test (colony formation, procedure of HAMBURGER and SALMON), continuous exposure
Format: cell-based
Conditions: Mus musculus, L1210, read-out: IC50 (continuous exposure)
Procedure: The experimental protocol was performed according to the procedure of HAMBURGER and SALMON on leukemia L 1210 strain cells. Some modifications were introduced in the procedure of HAMBURGER and SALMON, and in particular:
the conditioned medium was replaced by McCoy5A. The number of cells in a dish was reduced to 5×10^2 cells per dish on account of the high covering efficiency of leukemia L 1210. […]
In addition, parallel experiments were carried out with continuous incubation and with various concentrations of the test substance by mixing the latter with the upper layer before application.
The dishes were kept in an incubator with 5% CO2, 20% O2, at 95% relative humidity for 5 to 7 days at 37° C. After this period, the colonies having a diameter greater than 60 μm were counted with an inverted microscope.
The results were expressed as a percentage of the number of colonies formed from treated L 1210 relative to an untreated control. The coefficient of variation of repeated experiments was less than 15%.

SMILES | IC50 [µg/mL]
COc1cccc2c1C(=O)c1c(O)c3c(c(O)c1C2=O)C[C@@](O)(C(C)=O)C[C@@H]3O[C@H]1C[C@H](NCC#N)[C@H](O)[C@H](C)O1 [3'-N-(cyanomethyl)daunorubicin] | 0.0028 (≈ 0.00494 µM)
COCCN(CC#N)[C@H]1C[C@H](O[C@H]2C[C@](O)(C(C)=O)Cc3c(O)c4c(c(O)c32)C(=O)c2c(OC)cccc2C4=O)O[C@@H](C)[C@H]1O [3'-N-cyanomethyl-3'-N-(2-methoxyethyl)daunorubicin] | 0.09 (≈ 0.144 µM)

Same assay, conditions: Mus musculus, L1210; L 1210 leukemia cells, continuous incubation, colonies >60 μm counted after 5 to 7 days at 37° C; read-out: IC50 (continuous exposure)

SMILES | IC50 [µg/mL]
COc1cccc2c1C(=O)c1c(O)c3c(c(O)c1C2=O)C[C@@](O)(C(C)=O)C[C@@H]3O[C@H]1C[C@H](N(CC#N)CC#N)[C@H](O)[C@H](C)O1 [3'-N,N-bis(cyanomethyl)daunorubicin] | 0.08 (≈ 0.132 µM)
COCCOCCN(CCOCCOC)[C@H]1C[C@H](O[C@H]2C[C@](O)(C(C)=O)Cc3c(O)c4c(c(O)c32)C(=O)c2c(OC)cccc2C4=O)O[C@@H](C)[C@H]1O [3'-N,N-bis[2-(2-methoxyethoxy)ethyl]daunorubicin] | 0.22 (≈ 0.301 µM)
CCN(CC)C(=O)CN(CC(=O)N(CC)CC)[C@H]1C[C@H](O[C@H]2C[C@](O)(C(C)=O)Cc3c(O)c4c(c(O)c32)C(=O)c2c(OC)cccc2C4=O)O[C@@H](C)[C@H]1O [3'-N,N-bis[(N,N-diethylcarbamoyl)methyl]daunorubicin] | 0.65 (≈ 0.862 µM)
COCCOCCN[C@H]1C[C@H](O[C@H]2C[C@](O)(C(C)=O)Cc3c(O)c4c(c(O)c32)C(=O)c2c(OC)cccc2C4=O)O[C@@H](C)[C@H]1O [3'-N-[2-(2-methoxyethoxy)ethyl]daunorubicin] | 0.07 (≈ 0.111 µM)
COc1cccc2c1C(=O)c1c(O)c3c(c(O)c1C2=O)C[C@@](O)(C(C)=O)C[C@@H]3O[C@H]1C[C@H](N)[C@H](O)[C@H](C)O1 [DAUNORUBICIN, daunorubicin, reference compound] | 0.02 (≈ 0.0379 µM)
COc1cccc2c1C(=O)c1c(O)c3c(c(O)c1C2=O)C[C@@](O)(C(=O)CO)C[C@@H]3O[C@H]1C[C@H](N)[C@H](O)[C@H](C)O1 [DOXORUBICIN, doxorubicin, reference compound] | 0.02 (≈ 0.0368 µM)

Second part, the molecule after the results:

IC50 [µg/mL] | SMILES
0.01 (≈ 0.0171 µM) | COCCN[C@H]1C[C@H](O[C@H]2C[C@](O)(C(C)=O)Cc3c(O)c4c(c(O)c32)C(=O)c2c(OC)cccc2C4=O)O[C@@H](C)[C@H]1O [3'-N-(2-methoxyethyl)daunorubicin]
0.24 (≈ 0.4 µM) | COC(=O)CN[C@H]1C[C@H](O[C@H]2C[C@](O)(C(C)=O)Cc3c(O)c4c(c(O)c32)C(=O)c2c(OC)cccc2C4=O)O[C@@H](C)[C@H]1O [3'-N-(carbomethoxymethyl)daunorubicin]
0.28 (≈ 0.437 µM) | CCN(CC)C(=O)CN[C@H]1C[C@H](O[C@H]2C[C@](O)(C(C)=O)Cc3c(O)c4c(c(O)c32)C(=O)c2c(OC)cccc2C4=O)O[C@@H](C)[C@H]1O [3'-N-[(N,N-diethylcarbamoyl)methyl]daunorubicin]
